Assays:
EphH (Rv3338) [1] = biological target: T1, EphH (Rv3338) (Mycobacterium tuberculosis, UniProt O53388); type: biochemical
EphH (Rv3338) [2] = biological target: T1, EphH (Rv3338); assay: biochemical; settings: read-out: rEphH
[3] = biological target: T2, sEH (human recombinant sEH) (Homo sapiens, UniProt P34913); assay: fluorescence hydrolysis assay, Michaelis-Menten (Km); type: biochemical; settings: cited from earlier work
T2 construct: gene EPHX2
T2 sequence (P34913 1-555): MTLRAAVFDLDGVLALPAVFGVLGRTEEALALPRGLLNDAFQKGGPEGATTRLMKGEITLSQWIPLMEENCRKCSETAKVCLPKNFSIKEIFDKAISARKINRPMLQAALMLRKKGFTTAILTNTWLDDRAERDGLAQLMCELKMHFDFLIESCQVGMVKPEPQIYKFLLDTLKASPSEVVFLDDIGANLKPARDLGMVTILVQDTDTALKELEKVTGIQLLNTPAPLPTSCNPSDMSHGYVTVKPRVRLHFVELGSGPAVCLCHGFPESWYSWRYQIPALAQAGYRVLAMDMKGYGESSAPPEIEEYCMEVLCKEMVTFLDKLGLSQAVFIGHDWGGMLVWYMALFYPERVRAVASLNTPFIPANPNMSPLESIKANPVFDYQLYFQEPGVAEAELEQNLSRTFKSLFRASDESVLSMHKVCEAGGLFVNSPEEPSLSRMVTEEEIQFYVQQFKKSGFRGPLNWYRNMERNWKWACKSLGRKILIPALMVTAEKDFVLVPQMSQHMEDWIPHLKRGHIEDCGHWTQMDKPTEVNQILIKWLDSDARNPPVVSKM

[4] = tested on: COc1ccc2cc(C(C#N)OC(=O)CC3OC3c3ccccc3)ccc2c1; assay: purified protein

T1 sequence (O53388 whole entry): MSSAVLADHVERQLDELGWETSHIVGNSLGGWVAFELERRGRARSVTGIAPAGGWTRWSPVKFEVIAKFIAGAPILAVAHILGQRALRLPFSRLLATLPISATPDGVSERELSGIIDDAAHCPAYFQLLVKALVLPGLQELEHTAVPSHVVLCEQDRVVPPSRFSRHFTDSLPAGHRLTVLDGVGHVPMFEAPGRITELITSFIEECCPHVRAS

With `c1ccc(C2CO2)cc1` (racemic) [styrene oxide] the “colorimetric Red assay (NaIO4/adrenaline) with purified rEphH” value (EphH (Rv3338) [1]) was “EphH activity was also determined with another EH substrate, styrene oxide”.

For `O=C(O)CCCCCCCCCCCNC(=O)NC12CC3CC(CC(C3)C1)C2` [AUDA, 12-(3-adamantane-1-yl-ureido)-dodecanoic acid], the IC50 (EphH (Rv3338) [2]) was 9.4 ± 0.5 nM.

In the case of `COc1ccc2cc(C(C#N)OC(=O)CC3OC3c3ccccc3)ccc2c1` (stereo not drawn) [PHOME, (3-phenyl-oxiranyl)-acetic acid cyano-(6-methoxynaphthalen-2-yl)-methyl ester], the Km [3] is given as 26.2 µM.

Compound “EphH (Rv3338) (Mycobacterium tuberculosis H37Rv)” has a Km [4] of 21.03 µM, a Vmax [4] of 1.027 µmol/min and a kcat/Km [4] of 0.87 s⁻¹ µM⁻¹.

Reference: PMC9908614 (Frontiers in Microbiology, 2023)
